26 compounds from PubChem BioAssay AID330 (DTP/NCI, 2004) can be followed below.

The assay has as its system P388 leukemia ip, CD2F1 mice, survival T/C. As to the kind of experiment: NCI In Vivo Anticancer Drug Screen. Data for tumor model P388 Leukemia (intraperitoneal) in CD2F1 (CDF1) mice. The conditions noted are these: endpoint: median survival time, higher = longer survival. Put shortly:
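Mice carrying the transplanted tumor received test compound or vehicle. Survival was recorded in each group, and the value is the treated-group measurement divided by that of the vehicle-treated control group.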

[1] abbreviates: dose: 50.0 mg/kg/injection, schedule: Q01DX009 (ip), vehicle: saline with Tween-80.
[2] abbreviates: dose: 100.0 mg/kg/injection, schedule: Q01DX009 (ip), vehicle: saline with Tween-80.
Where [3] appears, read: dose: 200.0 mg/kg/injection, schedule: Q01DX009 (ip), vehicle: saline with Tween-80.
The mark [4] stands for this setting: dose: 25.0 mg/kg/injection, schedule: Q01DX009 (ip), vehicle: saline with Tween-80.
Setting [5] is: dose: 60.0 mg/kg/injection, schedule: Q01DX005 (ip), vehicle: saline with Tween-80.
The mark [6] stands for this setting: dose: 120.0 mg/kg/injection, schedule: Q01DX005 (ip), vehicle: saline with Tween-80.
Where [7] appears, read: dose: 240.0 mg/kg/injection, schedule: Q01DX005 (ip), vehicle: saline with Tween-80.
Setting [8] is: dose: 50.0 mg/kg/injection, schedule: Q01DX005 (ip), vehicle: saline with Tween-80.
[9] abbreviates: dose: 100.0 mg/kg/injection, schedule: Q01DX005 (ip), vehicle: saline with Tween-80.
[10] abbreviates: dose: 200.0 mg/kg/injection, schedule: Q01DX005 (ip), vehicle: saline with Tween-80.
Setting [11] is: dose: 50.0 mg/kg/injection, schedule: Q01DX009 (ip), vehicle: Klucel (hydroxypropylcellulose) (HPC).
Setting [12] is: dose: 100.0 mg/kg/injection, schedule: Q01DX009 (ip), vehicle: Klucel (hydroxypropylcellulose) (HPC).
Where [13] appears, read: dose: 200.0 mg/kg/injection, schedule: Q01DX009 (ip), vehicle: Klucel (hydroxypropylcellulose) (HPC).

“And” between values parts separate entries of the source, which are not always exact repeats. Identical values can stand only once. Toxic doses and inconclusive results are not listed.

On to `CC1(C)CC2(C)OC2C2(C1)N=NC(=Nc1ccccc1)O2` (stereo not given), for which the T/C by setting is: under setting [1], 105 % of control and 92 % of control; under setting [2], 120 % of control and 97 % of control; under setting [3], 108 % of control.
Turning to `c1ccc2c(NCCCCCCCNc3c4ccccc4nc4ccccc34)c3ccccc3nc2c1`, the T/C reads like this: (dose: 2.5 mg/kg/injection, schedule: Q01DX009 (ip), vehicle: other) 157 % of control; (dose: 5.0 mg/kg/injection, schedule: Q01DX009 (ip), vehicle: other) 155 % of control and 163 % of control and 175 % of control; (dose: 10.0 mg/kg/injection, schedule: Q01DX009 (ip), vehicle: other) 112 % of control.
Turning to `O=C1NC(=O)C2(CC3CCCC(C2)N3c2ccccc2)N1` (stereo not given), the T/C (dose: 100.0 mg/kg/injection, schedule: Q04DX003 (ip), vehicle: DMSO) is 95 % of control; the T/C (dose: 200.0 mg/kg/injection, schedule: Q04DX003 (ip), vehicle: DMSO) was 89 % of control; the T/C (dose: 400.0 mg/kg/injection, schedule: Q04DX003 (ip), vehicle: DMSO) is 91 % of control.
In the case of `CCCCOC(=O)N(C)SN(C)C(=O)Oc1cccc(C(C)C)c1`, the T/C under setting [1] was 121 % of control.
As for `Cc1cc(Nc2nnc(-c3cccnc3Oc3ccccc3)s2)ccc1Br`, the T/C was 88 % of control (dose: 12.5 mg/kg/injection, schedule: Q01DX009 (ip), vehicle: saline with Tween-80); 92 % of control under setting [4]; 105 % of control and 91 % of control under setting [1]; 94 % of control under setting [2]; 103 % of control under setting [3].
For the compound `O=C1c2ccccc2C(=O)c2c1cc1c(c2O)OCO1`, the T/C runs as follows: under setting [5], 86 % of control; under setting [6], 89 % of control; under setting [7], 91 % of control.
For `CCOC(=O)Nc1cc2c(c(N)n1)N=C(c1ccc(N)cc1)CN2`, where the note is “dose: 25.0 mg/kg/injection, schedule: Q01DX001 (ip), vehicle: saline”, the T/C was 117 % of control.
In the case of `CC(C)(C)C1CCC2(CC1)OCC1CCCN12` (stereo not given), the T/C (dose: 25.0 mg/kg/injection, schedule: Q01DX005 (ip), vehicle: saline with Tween-80) was 88 % of control; the T/C under setting [8] is 88 % of control; the T/C under setting [9] was 95 % of control.
`COc1cc2c(C)nc3c4cc5c(cc4ccc3c2cc1OC)OCO5`: the T/C runs as follows: (dose: 25.0 mg/kg/injection, schedule: Q01DX009 (ip), vehicle: water) 108 % of control; (dose: 50.0 mg/kg/injection, schedule: Q01DX009 (ip), vehicle: water) 95 % of control.
With `CC1CNCC(C)N1Cc1ccccc1` (stereo not given), the T/C was 108 % of control (dose: 50.0 mg/kg/injection, schedule: Q01DX005 (ip), vehicle: saline) and 99 % of control (dose: 100.0 mg/kg/injection, schedule: Q01DX005 (ip), vehicle: saline).
In the case of `N#CCc1ccccc1Br`, the T/C runs as follows: under setting [8], 93 % of control; under setting [9], 101 % of control.
For the compound `COC(=O)C#CBr`, the T/C was 100 % of control (dose: 3.13 mg/kg/injection, schedule: Q04DX003 (ip), vehicle: saline) and 100 % of control (dose: 6.25 mg/kg/injection, schedule: Q04DX003 (ip), vehicle: saline).
As for `CC(C)(C)OC(=O)NC(CCCNC(=O)OCc1ccccc1)C(=O)O` (stereo not given), the T/C was 100 % of control (dose: 50.0 mg/kg/injection, schedule: Q01DX005 (ip), vehicle: Klucel (hydroxypropylcellulose) (HPC)); 100 % of control (dose: 100.0 mg/kg/injection, schedule: Q01DX005 (ip), vehicle: Klucel (hydroxypropylcellulose) (HPC)); 99 % of control (dose: 200.0 mg/kg/injection, schedule: Q01DX005 (ip), vehicle: Klucel (hydroxypropylcellulose) (HPC)).
For the compound `O=S1(=O)c2ccccc2N(c2ccccc2)c2nccn21`, the T/C (dose: 100.0 mg/kg/injection, schedule: Q01DX001 (ip), vehicle: saline with Tween-80) is 101 % of control; the T/C (dose: 200.0 mg/kg/injection, schedule: Q01DX001 (ip), vehicle: saline with Tween-80) was 98 % of control; the T/C (dose: 400.0 mg/kg/injection, schedule: Q01DX001 (ip), vehicle: saline with Tween-80) is 92 % of control.
Turning to `CS(C)(=O)=Nc1ccc(Br)cc1`, the T/C (dose: 100.0 mg/kg/injection, schedule: Q04DX002 (ip), vehicle: saline with Tween-80) is 98 % of control; the T/C (dose: 200.0 mg/kg/injection, schedule: Q04DX002 (ip), vehicle: saline with Tween-80) is 98 % of control; the T/C (dose: 400.0 mg/kg/injection, schedule: Q04DX002 (ip), vehicle: saline with Tween-80) was 103 % of control.
As to `O=c1n(-c2ccccc2)c2nc3ccccc3nc2n1-c1ccc(Cl)c(Cl)c1`, the T/C is 90 % of control under setting [8], 100 % of control under setting [9] and 109 % of control under setting [10].
As to `CN(C)CC1CC1C1(C)c2ccccc2Sc2ccccc21` (stereo not given), the T/C runs as follows: under setting [11], 98 % of control; under setting [12], 95 % of control.
With `CCCCCC(CC(=O)O)C(N)C(=O)O` (stereo not given), the T/C was 104 % of control under setting [11], 103 % of control under setting [12] and 99 % of control under setting [13].
For `COC(=O)/C=C/C(=O)NC(O)C(Cl)(Cl)Cl` (stereo not given), the T/C runs as follows: under setting [8], 102 % of control; under setting [9], 107 % of control; under setting [10], 102 % of control.
Regarding `COc1ccc(-c2cc3ccccc3c(=O)n2Cc2ccccc2)cc1`, the T/C reads like this: under setting [5], 100 % of control; under setting [6], 103 % of control; under setting [7], 94 % of control.
`CCN(CC)C(=S)C(C)(C)C`: the T/C reads like this: under setting [5], 106 % of control; under setting [6], 106 % of control.
`COc1cc2c(cc1OC)C(C#N)N(C(=O)c1ccccc1)C=C2` (stereo not given): the T/C is, setting by setting: (dose: 0.1 mg/kg/injection, schedule: Q01DX009 (ip), vehicle: water) 98 % of control; (dose: 0.19 mg/kg/injection, schedule: Q01DX009 (ip), vehicle: water) 100 % of control; (dose: 0.38 mg/kg/injection, schedule: Q01DX009 (ip), vehicle: water) 98 % of control; (dose: 0.75 mg/kg/injection, schedule: Q01DX009 (ip), vehicle: water) 100 % of control; (dose: 1.5 mg/kg/injection, schedule: Q01DX009 (ip), vehicle: water) 100 % of control.
Take `CCCCCCCCCC(O)CCCCCC` (stereo not given): the T/C by setting is: (dose: 88.0 mg/kg/injection, schedule: Q01DX009 (ip), vehicle: other) 109 % of control; (dose: 132.0 mg/kg/injection, schedule: Q01DX009 (ip), vehicle: other) 109 % of control; (dose: 200.0 mg/kg/injection, schedule: Q01DX009 (ip), vehicle: other) 118 % of control.
Regarding `CCn1c(Cl)c(/C=N/NC(N)=S)c2cccc(/C=N\NC(N)=S)c21`, the T/C runs as follows: (dose: 100.0 mg/kg/injection, schedule: Q01DX001 (ip), vehicle: Klucel (hydroxypropylcellulose) (HPC)) 97 % of control; (dose: 200.0 mg/kg/injection, schedule: Q01DX001 (ip), vehicle: Klucel (hydroxypropylcellulose) (HPC)) 87 % of control; (dose: 400.0 mg/kg/injection, schedule: Q01DX001 (ip), vehicle: Klucel (hydroxypropylcellulose) (HPC)) 97 % of control.
With `CN(C)c1nc(N)nc(Nc2ccc(Br)cc2)c1N=O`, the T/C was 100 % of control under setting [4]; 91 % of control under setting [1]; 113 % of control under setting [12]; 100 % of control under setting [2]; 108 % of control (dose: 100.0 mg/kg/injection, schedule: Q04DX003 (ip), vehicle: saline with Tween-80); 109 % of control under setting [13]. Besides, the T/C (dose: 200.0 mg/kg/injection, schedule: Q04DX003 (ip), vehicle: saline with Tween-80) was 95 % of control; the T/C (dose: 400.0 mg/kg/injection, schedule: Q01DX009 (ip), vehicle: Klucel (hydroxypropylcellulose) (HPC)) was 95 % of control; the T/C (dose: 400.0 mg/kg/injection, schedule: Q04DX003 (ip), vehicle: saline with Tween-80) is 95 % of control.
With `COc1ccc([N+](=O)[O-])cc1NC(=O)c1ccc2c(c1)C(=O)OC2=O`, the T/C runs as follows: (dose: 7.5 mg/kg/injection, schedule: Q01DX005 (ip), vehicle: saline with Tween-80) 97 % of control; (dose: 15.0 mg/kg/injection, schedule: Q01DX005 (ip), vehicle: saline with Tween-80) 87 % of control; (dose: 30.0 mg/kg/injection, schedule: Q01DX005 (ip), vehicle: saline with Tween-80) 90 % of control and 94 % of control; under setting [5], 89 % of control; under setting [7], 93 % of control.
